ChEMBL document CHEMBL1152064, “Nucleosides and nucleotides. 128. (2S)-2-deoxy-2-C-methyl-5-iodouridine (SMIU) as a novel potent anti-herpes virus agent” (Bioorg Med Chem Lett, 1994)
Converted amounts (≈) assume the structure as drawn.

Columns and labels:
NC-37 [1] = experiment: Cytotoxic concentration required to inhibit NC-37 cells by 50%; assay type: functional; conditions: Homo sapiens
NC-37 [2] = experiment: Concentration required to reduce HSV-1 (KOS strain) induced cytopathogenicity in NC-37 cells; assay type: functional, cell-based; conditions: Homo sapiens

| SMILES | CC50 (NC-37 [1]) | EC50 (NC-37 [2]) |
| --- | --- | --- |
| C[C@H]1[C@H](O)[C@@H](CO)O[C@H]1n1cc(I)c(N)nc1=O | > 100 µg/mL | 4.8 µg/mL (≈ 13.1 µM) |
| Nc1nc(=O)n([C@@H]2O[C@H](CO)[C@@H](O)[C@@H]2F)cc1I [FIACITABINE] | 63 µg/mL (≈ 170 µM) | 0.1 µg/mL (≈ 0.269 µM) |
| O=c1[nH]c(=O)n([C@@H]2O[C@H](CO)[C@@H](O)[C@@H]2F)cc1I [FIALURIDINE] | 6.7 µg/mL (≈ 18 µM) | 0.06 µg/mL (≈ 0.161 µM) |
| C[C@H]1[C@H](O)[C@@H](CO)O[C@H]1n1cc(F)c(=O)[nH]c1=O | > 100 µg/mL | > 100 µg/mL |
| C[C@H]1[C@H](O)[C@@H](CO)O[C@H]1n1cc(I)c(=O)[nH]c1=O | > 100 µg/mL | 0.14 µg/mL (≈ 0.38 µM) |
| C[C@H]1[C@H](O)[C@@H](CO)O[C@H]1n1cc(Br)c(N)nc1=O | > 100 µg/mL | > 100 µg/mL |
| C[C@H]1[C@H](O)[C@@H](CO)O[C@H]1n1cc(Cl)c(=O)[nH]c1=O | > 100 µg/mL | > 100 µg/mL |
| C[C@H]1[C@H](O)[C@@H](CO)O[C@H]1n1cc(Br)c(=O)[nH]c1=O | > 100 µg/mL | 11 µg/mL (≈ 34.3 µM) |
| O=c1[nH]c(=O)n([C@H]2C[C@H](O)[C@@H](CO)O2)cc1I [IDOXURIDINE] | 80 µg/mL (≈ 226 µM) | > 80 µg/mL |
| C[C@H]1[C@H](O)[C@@H](CO)O[C@H]1n1cc(F)c(N)nc1=O | 0.22 µg/mL (≈ 0.849 µM) | 0.22 µg/mL (≈ 0.849 µM) |
| C[C@H]1[C@H](O)[C@@H](CO)O[C@H]1n1cc(Cl)c(N)nc1=O | > 100 µg/mL | > 100 µg/mL |
| Nc1nc2c(ncn2COCCO)c(=O)[nH]1 [ACYCLOVIR] | > 100 µg/mL | 0.17 µg/mL (≈ 0.755 µM) |
